The target in assay [1] is T1, C-X-C chemokine receptor type 2 (Homo sapiens, UniProt P25025).
T1 sequence (P25025 whole entry): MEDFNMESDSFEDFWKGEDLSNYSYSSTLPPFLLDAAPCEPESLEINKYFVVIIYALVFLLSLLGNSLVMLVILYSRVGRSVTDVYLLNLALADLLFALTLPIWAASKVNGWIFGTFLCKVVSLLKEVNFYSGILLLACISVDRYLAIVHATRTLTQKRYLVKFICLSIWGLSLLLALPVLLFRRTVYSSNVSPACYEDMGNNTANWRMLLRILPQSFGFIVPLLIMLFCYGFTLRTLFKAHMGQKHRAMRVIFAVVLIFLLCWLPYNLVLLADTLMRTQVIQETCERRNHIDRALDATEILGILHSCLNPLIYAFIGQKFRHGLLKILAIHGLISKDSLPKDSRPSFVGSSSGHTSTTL
Put plainly: Evaluated using an SPA assay with recombinant human [125I]IL-8 and membranes prepared from Sf9 cells expressing human CXCR2.

The species entered for assay [2] is Homo sapiens. Put plainly: Ability to block GRO-alpha driven human neutrophil chemotaxis. Format: functional, organism-based.
For assay [3], the target named is T2, Calcitonin receptor (Homo sapiens) (UniProt P30988).
T2 sequence (whole entry): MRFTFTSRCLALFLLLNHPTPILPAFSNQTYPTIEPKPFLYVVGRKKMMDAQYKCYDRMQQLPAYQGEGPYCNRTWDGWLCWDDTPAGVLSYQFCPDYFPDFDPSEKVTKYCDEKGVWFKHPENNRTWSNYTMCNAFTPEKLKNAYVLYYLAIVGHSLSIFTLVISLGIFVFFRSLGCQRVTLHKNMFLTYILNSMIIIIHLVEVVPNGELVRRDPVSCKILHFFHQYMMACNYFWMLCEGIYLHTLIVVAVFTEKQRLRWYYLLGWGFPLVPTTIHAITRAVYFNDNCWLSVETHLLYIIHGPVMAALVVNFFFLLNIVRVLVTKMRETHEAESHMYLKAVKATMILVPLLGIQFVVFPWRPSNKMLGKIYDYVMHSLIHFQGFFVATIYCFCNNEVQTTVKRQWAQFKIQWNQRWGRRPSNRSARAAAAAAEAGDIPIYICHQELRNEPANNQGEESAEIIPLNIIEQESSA
As to the kind of experiment: Displacement of [125I]calcitonin from T-47D (human breast cancer) cell membrane expressing human calcitonin receptor. The following applies: T47D; concentration not given here. Format: cell membranes. In general terms: Loss of bound radioactivity is the signal in a displacement assay; it reports binding, not function.

Assay [4] deals with T3, Endothelin receptor type B (Homo sapiens) (UniProt P24530).
T3 sequence (whole entry): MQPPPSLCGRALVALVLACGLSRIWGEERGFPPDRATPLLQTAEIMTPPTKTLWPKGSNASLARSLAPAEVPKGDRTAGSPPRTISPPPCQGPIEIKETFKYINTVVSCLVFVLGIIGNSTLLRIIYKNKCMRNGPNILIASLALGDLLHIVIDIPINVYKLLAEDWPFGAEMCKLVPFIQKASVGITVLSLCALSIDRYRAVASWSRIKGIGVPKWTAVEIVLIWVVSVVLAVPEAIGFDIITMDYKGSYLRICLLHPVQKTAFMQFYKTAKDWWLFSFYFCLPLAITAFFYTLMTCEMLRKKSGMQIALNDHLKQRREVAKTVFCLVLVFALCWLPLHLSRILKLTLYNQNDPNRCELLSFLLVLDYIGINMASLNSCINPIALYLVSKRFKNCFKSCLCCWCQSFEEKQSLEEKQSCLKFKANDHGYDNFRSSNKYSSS
As to the kind of experiment: Displacement of [125I]endothelin from CHO cell membrane expressing human Endothelin B receptor. The following applies: concentration not given here. In kind it is cell membranes. More on the design: concentration or dose not given beside the values.

Assay [5] deals with T4, C-X-C chemokine receptor type 2 (Homo sapiens) (UniProt P25025).
T4 sequence (whole entry): T1 sequence (P25025 whole entry)
Put plainly: Displacement of [125I]IL-8 from CHO cell membrane expressing human CXCR2 receptor at a concentration of 20 uM. In kind it is cell membranes.

The target in assay [6] is T5, C-X-C chemokine receptor type 1 (Homo sapiens) (UniProt P25024).
T5 sequence (whole entry): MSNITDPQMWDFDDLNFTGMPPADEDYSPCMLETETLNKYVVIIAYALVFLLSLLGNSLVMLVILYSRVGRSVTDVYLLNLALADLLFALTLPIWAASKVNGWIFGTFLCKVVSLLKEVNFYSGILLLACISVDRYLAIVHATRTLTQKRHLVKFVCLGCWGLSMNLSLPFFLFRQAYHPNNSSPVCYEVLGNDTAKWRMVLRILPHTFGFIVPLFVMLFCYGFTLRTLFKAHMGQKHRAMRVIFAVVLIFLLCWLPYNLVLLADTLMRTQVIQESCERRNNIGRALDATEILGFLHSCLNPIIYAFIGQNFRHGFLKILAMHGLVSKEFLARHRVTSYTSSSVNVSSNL
Put plainly: Displacement of [125I]IL-8 from CHO cell membrane expressing human CXCR1 receptor at a concentration of 20 uM. In kind it is cell membranes.

Assay [7] addresses T6, Gastrin/cholecystokinin type B receptor (Homo sapiens) (UniProt P32239).
T6 sequence (whole entry): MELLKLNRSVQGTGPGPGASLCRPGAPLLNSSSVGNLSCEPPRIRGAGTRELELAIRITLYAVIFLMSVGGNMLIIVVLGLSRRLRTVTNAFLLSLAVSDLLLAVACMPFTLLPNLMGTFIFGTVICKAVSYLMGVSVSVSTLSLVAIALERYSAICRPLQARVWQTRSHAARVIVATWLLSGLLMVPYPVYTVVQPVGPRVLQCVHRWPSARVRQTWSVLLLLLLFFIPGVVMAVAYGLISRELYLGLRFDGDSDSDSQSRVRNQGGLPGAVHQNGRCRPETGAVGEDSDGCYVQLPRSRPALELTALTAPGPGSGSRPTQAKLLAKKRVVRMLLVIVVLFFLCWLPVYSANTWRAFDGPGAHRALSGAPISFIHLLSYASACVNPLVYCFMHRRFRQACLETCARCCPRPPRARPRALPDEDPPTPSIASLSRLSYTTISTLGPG
Put plainly: Displacement of [3H]CCK-8 from NIH3T3 (mouse embryo cell membrane ) expressing human cholecystokinin CCKB receptor. The settings on record: concentration not given here. In kind it is cell membranes. More on the design: concentration or dose not given beside the values.

For assay [8], the species on record is Homo sapiens. Put plainly: Functional selectivity was assessed in a neutrophil chemotaxis assay using N-formyl-methionyl-leucyl-phenylalanine (FMLP). Format: organism-based.
Assay [9] has as its target T7, Neuropeptide Y receptor type 1 (Homo sapiens) (UniProt P25929).
T7 sequence (whole entry): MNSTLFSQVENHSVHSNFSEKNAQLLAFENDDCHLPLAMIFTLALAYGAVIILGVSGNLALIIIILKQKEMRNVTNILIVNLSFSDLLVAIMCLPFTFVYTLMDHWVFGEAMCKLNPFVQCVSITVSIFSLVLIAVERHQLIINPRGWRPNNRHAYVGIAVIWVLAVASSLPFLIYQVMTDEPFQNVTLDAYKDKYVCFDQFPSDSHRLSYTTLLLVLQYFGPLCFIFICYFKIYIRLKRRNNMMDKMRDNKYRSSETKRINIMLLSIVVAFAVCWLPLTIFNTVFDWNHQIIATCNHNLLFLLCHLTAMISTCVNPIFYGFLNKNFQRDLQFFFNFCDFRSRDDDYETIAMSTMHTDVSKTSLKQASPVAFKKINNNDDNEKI
Put plainly: Displacement of [125I]-peptide YY (PYY) from SK-N-MC (human neuroblastoma) cell membrane expressing human Neuropeptide Y receptor type 1. The following applies: concentration not given here. More on the design: concentration or dose not given beside the values.

The target of assay [10] is Somatostatin receptor (Mus musculus) (UniProt P30935+O08858+P30875+P30873+P49660). Put plainly: Displacement of [125I]-TYR somatostatin from At-T-20 (mouse pituitary) cell membrane expressing somatostatin receptor. In kind it is cell membranes. The settings on record: Pituitary gland cell; concentration not given here.
Assay [11] concerns the target T1, C-X-C chemokine receptor type 2. Put plainly: Compound binding was evaluated using an SPA assay with recombinant human [125I]IL-8 and membranes prepared from Sf9 cells expressing human C-X-C chemokine receptor type 2. In kind it is cell membranes.

For 17 molecules, IC50 and inhibition results are on record in ChEMBL document CHEMBL1133879, “Nicotinamide N-oxides as CXCR2 antagonists” (Bioorg Med Chem Lett, 2001).

The structures appear in SMILES notation. pIC50: −log10 of the molar value. Some results are limits rather than exact numbers.

As a reminder, the pIC50 is the negative decadic logarithm of the IC50, by convention in mol/L. What is called inhibition is the relative decrease from the control value, in per cent.

Sequence of Somatostatin receptor (Mus musculus) (P30935 whole entry): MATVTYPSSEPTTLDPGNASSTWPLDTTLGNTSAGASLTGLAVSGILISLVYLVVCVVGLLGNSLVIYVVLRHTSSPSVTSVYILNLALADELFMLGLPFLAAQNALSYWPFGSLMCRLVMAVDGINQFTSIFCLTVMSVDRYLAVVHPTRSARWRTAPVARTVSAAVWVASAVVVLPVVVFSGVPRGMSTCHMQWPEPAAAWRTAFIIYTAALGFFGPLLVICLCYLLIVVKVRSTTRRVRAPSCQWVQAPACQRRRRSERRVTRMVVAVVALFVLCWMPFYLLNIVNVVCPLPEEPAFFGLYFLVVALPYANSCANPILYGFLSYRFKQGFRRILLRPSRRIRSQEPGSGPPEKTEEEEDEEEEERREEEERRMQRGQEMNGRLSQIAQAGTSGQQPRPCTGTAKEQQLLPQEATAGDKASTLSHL
Sequence of Somatostatin receptor (Mus musculus) (O08858 whole entry): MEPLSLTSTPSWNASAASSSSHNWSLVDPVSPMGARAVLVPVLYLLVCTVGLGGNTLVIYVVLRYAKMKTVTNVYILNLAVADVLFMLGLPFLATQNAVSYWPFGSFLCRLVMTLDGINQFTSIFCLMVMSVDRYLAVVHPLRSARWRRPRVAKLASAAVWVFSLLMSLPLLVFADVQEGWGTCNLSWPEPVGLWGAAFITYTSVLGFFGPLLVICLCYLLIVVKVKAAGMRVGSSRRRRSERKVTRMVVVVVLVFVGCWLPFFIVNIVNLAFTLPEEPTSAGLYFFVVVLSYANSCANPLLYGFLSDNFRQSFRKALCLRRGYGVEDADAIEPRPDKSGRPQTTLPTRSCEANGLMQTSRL
Sequence of Somatostatin receptor (Mus musculus) (P30875 whole entry): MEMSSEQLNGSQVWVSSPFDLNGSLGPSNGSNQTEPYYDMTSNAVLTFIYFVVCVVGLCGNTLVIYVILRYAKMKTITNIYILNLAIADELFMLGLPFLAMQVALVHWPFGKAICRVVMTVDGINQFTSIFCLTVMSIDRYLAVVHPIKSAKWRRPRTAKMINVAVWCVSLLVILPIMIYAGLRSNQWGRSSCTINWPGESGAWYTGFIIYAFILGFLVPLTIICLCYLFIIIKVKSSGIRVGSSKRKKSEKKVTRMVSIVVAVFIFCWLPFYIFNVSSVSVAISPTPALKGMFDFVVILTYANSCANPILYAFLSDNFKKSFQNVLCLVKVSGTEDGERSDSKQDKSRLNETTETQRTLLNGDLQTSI
Sequence of Somatostatin receptor (Mus musculus) (P30873 whole entry): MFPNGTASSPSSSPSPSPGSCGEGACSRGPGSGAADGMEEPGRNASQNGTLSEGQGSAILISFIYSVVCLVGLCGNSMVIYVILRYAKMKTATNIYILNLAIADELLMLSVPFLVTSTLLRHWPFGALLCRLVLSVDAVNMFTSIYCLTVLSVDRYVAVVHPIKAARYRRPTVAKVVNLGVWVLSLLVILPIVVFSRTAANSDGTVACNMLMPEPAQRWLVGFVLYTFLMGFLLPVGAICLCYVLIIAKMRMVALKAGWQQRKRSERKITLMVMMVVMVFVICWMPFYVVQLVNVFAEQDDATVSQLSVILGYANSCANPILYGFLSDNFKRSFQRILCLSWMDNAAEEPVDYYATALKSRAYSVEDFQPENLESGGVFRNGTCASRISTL
Sequence of Somatostatin receptor (Mus musculus) (P49660 with tags, fused parts or gaps): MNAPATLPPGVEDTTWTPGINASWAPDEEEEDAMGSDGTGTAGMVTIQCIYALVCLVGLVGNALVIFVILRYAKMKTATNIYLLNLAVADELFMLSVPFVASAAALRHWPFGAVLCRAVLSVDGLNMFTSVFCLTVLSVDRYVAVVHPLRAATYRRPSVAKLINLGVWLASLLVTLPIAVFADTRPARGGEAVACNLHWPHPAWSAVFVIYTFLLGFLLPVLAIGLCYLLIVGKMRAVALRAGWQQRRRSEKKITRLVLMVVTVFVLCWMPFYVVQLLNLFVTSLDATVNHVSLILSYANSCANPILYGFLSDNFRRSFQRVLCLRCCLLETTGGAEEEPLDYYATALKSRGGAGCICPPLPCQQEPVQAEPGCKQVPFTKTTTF

On to `CC(C)S(=O)(=O)c1ccc(C(=O)Nc2ccc(F)cc2)c[n+]1[O-]`, for which the figures for the pIC50 in [1] and in assay [2] were 6.40 and 5.70, respectively.

Consider `CCS(=O)(=O)c1ccc(C(=O)Nc2ccc(F)cc2)c[n+]1[O-]`, for which the inhibition in assay [3] was 3%; in [4], 15%; in [5] it was 97%; in assay [6], 8%; in [7] it was 14%; in assay [9] it was 41%. In addition, the pIC50 was 6.89 in [1], 4.88 in [8] and 5.48 in assay [2].

As for `O=C(Nc1ccc(F)cc1)c1ccc(S(=O)(=O)C2CCCC2)[n+]([O-])c1`, the inhibition in assay [3] was 4%; in assay [4], -2%; in assay [5], 60%; in [6], 8%; in assay [7], 1%; in assay [9], -1%. Besides, the negative logarithm of the IC50 (pIC50) in assay [1] was 6.34; in [2] it was 5.72.

With `O=C(Nc1ccc(F)cc1)c1ccc(Cl)[n+]([O-])c1`, the inhibition was -1% in [3]; 14% in assay [4]; 85% in assay [5]; 68% in assay [6]; 11% in assay [7]; -2% in assay [10]. Moreover, in assay [9], the inhibition is 15%. Besides, the negative logarithm of the IC50 (pIC50) was 6.00 in [1], less than 4.40 in assay [8] and 5.96 in assay [2].

As for `O=C(NC(c1ccccc1)c1ccccc1)c1ccc(Cl)[n+]([O-])c1`, the negative-log IC50 (pIC50) is less than 4.70 in assay [1] and 6.08 in [2].

For `COc1ccc(NC(=O)c2ccc(Cl)[n+]([O-])c2)cc1`, the pIC50 in assay [1] and in assay [2] was less than 4.70 in each case.

On to `CC(C)(C)c1ccc(NC(=O)c2ccc(Cl)[n+]([O-])c2)cc1`, for which the pIC50 in assay [1] was less than 4.70; in [2], 5.89.

`O=C(Nc1ccc(I)cc1)c1ccc(Cl)[n+]([O-])c1`: the negative-log IC50 (pIC50) is less than 4.70 in assay [1] and 6.30 in assay [2].

With `O=C(Nc1ccc(F)cc1)c1ccc(S(=O)(=O)Cc2ccccc2)[n+]([O-])c1`, the inhibition in assay [4] amounted to 8%; in [5] it was 77%; in [6], 9%; in assay [7] it was 29%; in assay [10], 38%; in assay [9] it was 32%. Moreover, the figures for the pIC50 in assay [1], in [8] and in assay [2] were 6.55, 4.89 and 6.00, respectively.

Take `O=C(Nc1ccc(F)cc1)c1ccc(S(=O)(=O)c2ccccc2)[n+]([O-])c1`: the negative-log IC50 (pIC50) is 7.05 in [1] and less than 4.70 in [2].

Regarding `O=C(Nc1ccccc1O)c1ccc(Cl)[n+]([O-])c1`, the pIC50 is less than 4.70 in [1] and 5.38 in assay [2].

Consider `O=C(NCc1ccc(F)cc1)c1ccc(Cl)[n+]([O-])c1`, for which the pIC50 in [1] and in [2] was less than 4.70 in each case.

With `O=C(O)c1cccc(S(=O)(=O)c2ccc(C(=O)Nc3ccc(F)cc3)c[n+]2[O-])c1`, the negative-log IC50 (pIC50) in assay [1] was 7.49; in assay [2] it was less than 4.70.

In assay [2], `N#Cc1ccc(NC(=O)Nc2ccccc2Br)c2nn[nH]c12` had a pIC50 of 8.00.

As for `O=C(NC1CCCCC1)c1ccc(Cl)[n+]([O-])c1`, the pIC50 in [1] and in assay [2] was less than 4.70 in each case.

Take `CS(=O)(=O)c1ccc(C(=O)Nc2ccc(F)cc2)c[n+]1[O-]`: the inhibition in [4] was 8%; in assay [5], 97%; in assay [6], 73%; in [7], 40%; in assay [10], 60%; in assay [9] it was 58%. Further, the pIC50 in [1] was 6.89; in assay [8], 5.02; in [2] it was 5.70.

With `CCN(CC)CCCCNc1nc2cc(Cl)c(Cl)cc2nc1-c1ccc(-c2cccs2)s1`, the negative-log IC50 (pIC50) in assay [11] is 6.96; in assay [2] it was 6.77.
